Reference: patent publication US12384797B2, “Thioeno[3,2-b] pyridin-7-amine compounds for treating familial dysautonomia” (PTC THERAPEUTICS, INC., priority 2019, dated 2025)

Test system: Elongator complex protein 1 (ELP1, also referred to as IKBKAP)
Test: IKBKAP-HTRF assay (IKBKAP protein in lysates of FD patient-derived fibroblasts)
Format: cell-based, human
Details: 48 hours incubation, 7-point concentration curve
Protocol: The assay is used for the quantitative determination of Elongator complex protein 1 (ELP1, also referred to as IKBKAP) concentration in cell lysates using the HTRF® (Homogeneous Time-Resolved Fluorescence) technology. IKBKAP is detected in a sandwich HTRF assay by use of an anti-IKAP antibody labeled with a donor and an anti-IKAP antibody labeled with an acceptor.
Cells were thawed and incubated in DMEM-10% FBS for 72 hours. Cells were trypsinized, counted, and re-suspended to a concentration of 50,000 cells/mL in DMEM-10% FBS. A 199 μL aliquot of the cell suspensions were plated at 10,000 cells per well in a 96 well microtiter plate and incubated for 3 to 5 hours. […] Test compounds were serially diluted 3.16-fold in 100% DMSO to generate a 7-point concentration curve. A 1 μL aliquot of 200× compound solution was transferred to cell-containing wells, and cells were incubated for 48 hours in a cell culture incubator (37° C., 5% CO2, 100% relative humidity). Triplicate samples were set up for each compound concentration. After 48 hours, the supernatant was removed from the cells and 50 μL of the 1×LB4 lysis buffer, containing protease inhibitors, was added to the cells and incubated with shaking at room temperature for 1 hour. A 36 μL aliquot of this lysate was subsequently transferred to the 384-well plate containing 4 μL of the antibody solution (1:50 dilution of anti IKAP d2 and anti-IKAP K(9+8) in detection buffer). The 384-well plate was then centrifuged for 1 minute to bring the solutions to the bottom of the plate and incubated overnight at 4° C. Fluorescence for each well of the plate at 665 nm and 620 nm was measured was on the EnVision plate reader (Perkin Elmer). The ΔF for each sample is calculated by:
[formula] wherein Signal is the normalized fluorescence for each sample well and Blank is the average normalized average fluorescence for the Blank control wells.
The maximum fold increase (MFI) in IKBKAP protein abundance for compounds of Formula (I) or a form thereof relative to the vehicle control are provided in Table 1. MFI was calculated by dividing the ΔF value for each sample well by the sample ΔF for the vehicle control wells.
The EC2x for IKBKAP protein expression obtained from the 7-point concentration curve generated for each test compound according to the protocol in Biological Example 1 are also provided in Table 1. The term “EC2x for IKBKAP protein expression” is defined as the concentration of test compound that is effective in producing two times the amount of IKBKAP protein in a FD patient cell compared to the amount produced from the DMSO vehicle control.

| Compound | EC2x for IKBKAP protein expression (concentration producing two times the amount of IKBKAP protein vs DMSO vehicle control) | MFI (maximum fold increase in IKBKAP protein abundance relative to the vehicle control) |
| --- | --- | --- |
| FC(F)Oc1csc2c(NCc3cccs3)cc(Cl)nc12 [Compound 149, 5-chloro-3-(difluoromethoxy)-N-[(thiophen-2-yl)methyl]thieno[3,2-b]pyridin-7-amine] | *** (between >0.02 μM and ≤0.5 μM is indicated by three stars (***)) | **** (between >3.9 and ≤4.9 is indicated by four stars (****)) |
| C[C@H](N)Cc1sc2c(NCc3ccco3)cc(Cl)nc2c1C#N [Compound 109, 2-[(2S)-2-aminopropyl]-5-chloro-7-{[(furan-2-yl)methyl]amino}thieno[3,2-b]pyridine-3-carbonitrile] | ***** (≤0.005 μM is indicated by five stars (*****)) | ***** (>4.9 is indicated by five stars (*****)) |
| Cc1c(NC[C@H](C)N)sc2c(NCc3cccs3)cc(Cl)nc12 [Compound 163, N^2-[(2S)-2-aminopropyl]-5-chloro-3-methyl-N^7-[(thiophen-2-yl)methyl]thieno[3,2-b]pyridine-2,7-diamine] | *** (between >0.02 μM and ≤0.5 μM is indicated by three stars (***)) | **** (between >3.9 and ≤4.9 is indicated by four stars (****)) |
| C[C@H](N)Cc1sc2c(NCc3cccs3)cc(C#N)nc2c1Cl [Compound 112, 2-[(2S)-2-aminopropyl]-3-chloro-7-{[(thiophen-2-yl)methyl]amino}thieno[3,2-b]pyridine-5-carbonitrile] | ***** (≤0.005 μM is indicated by five stars (*****)) | ***** (>4.9 is indicated by five stars (*****)) |
| Cc1c(C[C@@H](N)CO)sc2c(NCc3ccco3)cc(Cl)nc12 [Compound 58, (2R)-2-amino-3-(5-chloro-7-{[(furan-2-yl)methyl]amino}-3-methylthieno[3,2-b]pyridin-2-yl)propan-1-ol] | ***** (≤0.005 μM is indicated by five stars (*****)) | ***** (>4.9 is indicated by five stars (*****)) |
| Clc1cc(NCc2ccco2)c2scc(Cl)c2n1 [Compound 6, 3,5-dichloro-N-[(furan-2-yl)methyl]thieno[3,2-b]pyridin-7-amine] | *** (between >0.02 μM and ≤0.5 μM is indicated by three stars (***)) | ***** (>4.9 is indicated by five stars (*****)) |
| N[C@@H](CF)Cc1sc2c(NCc3ccco3)cc(Cl)nc2c1Br [Compound 46, 2-[(2R)-2-amino-3-fluoropropyl]-3-bromo-5-chloro-N-[(furan-2-yl)methyl]thieno[3,2-b]pyridin-7-amine] | ***** (≤0.005 μM is indicated by five stars (*****)) | ***** (>4.9 is indicated by five stars (*****)) |
| N[C@@H](CO)Cc1cc2nc(Cl)cc(NCc3ccco3)c2s1 [Compound 17, (2R)-2-amino-3-(5-chloro-7-{[(furan-2-yl)methyl]amino}thieno[3,2-b]pyridin-2-yl)propan-1-ol] | ***** (≤0.005 μM is indicated by five stars (*****)) | **** (between >3.9 and ≤4.9 is indicated by four stars (****)) |
| N[C@H](Cc1sc2c(NCc3ccco3)cc(Cl)nc2c1Cl)C(=O)Nc1ccccc1 [Compound 122, 3-(3,5-dichloro-7-{[(furan-2-yl)methyl]amino}thieno[3,2-b]pyridin-2-yl)-N-phenyl-D-alaninamide] | **** (between >0.005 μM and ≤0.02 μM is indicated by four stars (****)) | ***** (>4.9 is indicated by five stars (*****)) |
| C[C@H](N)c1cc2nc(Cl)cc(NCc3ccco3)c2s1 [Compound 24, 2-[(1S)-1-aminoethyl]-5-chloro-N-[(furan-2-yl)methyl]thieno[3,2-b]pyridin-7-amine] | * (An EC2x>1 μM is indicated by one star (*)) | ** (between >1.9 and ≤2.9 is indicated by two stars (**)) |
| CC[C@H](N)Cc1sc2c(NCc3nccs3)cc(Cl)nc2c1C [Compound 85, 2-[(2S)-2-aminobutyl]-5-chloro-3-methyl-N-[(1,3-thiazol-2-yl)methyl]thieno[3,2-b]pyridin-7-amine] | ***** (≤0.005 μM is indicated by five stars (*****)) | ***** (>4.9 is indicated by five stars (*****)) |
| Cc1c([C@@H](C)N)sc2c(NCc3ccco3)cc(Cl)nc12 [Compound 22, 2-[(1R)-1-aminoethyl]-5-chloro-N-[(furan-2-yl)methyl]-3-methylthieno[3,2-b]pyridin-7-amine] | * (An EC2x>1 μM is indicated by one star (*)) | ** (between >1.9 and ≤2.9 is indicated by two stars (**)) |
| N[C@H](Cc1sc2c(NCc3ccco3)cc(Cl)nc2c1Cl)C(=O)Nc1ccccc1F [Compound 120, 3-(3,5-dichloro-7-{[(furan-2-yl)methyl]amino}thieno[3,2-b]pyridin-2-yl)-N-(2-fluorophenyl)-D-alaninamide] | **** (between >0.005 μM and ≤0.02 μM is indicated by four stars (****)) | **** (between >3.9 and ≤4.9 is indicated by four stars (****)) |
| C[C@H](N)Cc1sc2c(NCc3ccco3)cc(Cl)nc2c1Cl [Compound 36, 2-[(2S)-2-aminopropyl]-3,5-dichloro-N-[(furan-2-yl)methyl]thieno[3,2-b]pyridin-7-amine] | ***** (≤0.005 μM is indicated by five stars (*****)) | ***** (>4.9 is indicated by five stars (*****)) |
| 2-[(2R)-2-amino-3-fluoropropyl]-5-chloro-3-methyl-N-[(1,3-thiazol-2-yl)methyl]thieno[3,2-b]pyridin-7-amine [Compound 69] | ***** (≤0.005 μM is indicated by five stars (*****)) | ***** (>4.9 is indicated by five stars (*****)) |
| Cc1c(C[C@@H](N)CC(C)C)sc2c(NCc3nccs3)cc(Cl)nc12 [Compound 68, 2-[(2S)-2-amino-4-methylpentyl]-5-chloro-3-methyl-N-[(1,3-thiazol-2-yl)methyl]thieno[3,2-b]pyridin-7-amine] | **** (between >0.005 μM and ≤0.02 μM is indicated by four stars (****)) | ***** (>4.9 is indicated by five stars (*****)) |
| C[C@H](N)C(O)c1sc2c(NCc3ccco3)cc(Cl)nc2c1Br (stereo partly drawn) [Compound 153, (2S)-2-amino-1-(3-bromo-5-chloro-7-{[(furan-2-yl)methyl]amino}thieno[3,2-b]pyridin-2-yl)propan-1-ol] | *** (between >0.02 μM and ≤0.5 μM is indicated by three stars (***)) | ** (between >1.9 and ≤2.9 is indicated by two stars (**)) |
| CN[C@@H](C)c1sc2c(NCc3ccco3)cc(Cl)nc2c1C [Compound 26, 5-chloro-N-[(furan-2-yl)methyl]-3-methyl-2-[(1S)-1-(methylamino)ethyl]thieno[3,2-b]pyridin-7-amine] | *** (between >0.02 μM and ≤0.5 μM is indicated by three stars (***)) | **** (between >3.9 and ≤4.9 is indicated by four stars (****)) |
| C[C@H](N)Cc1sc2c(NCc3ccco3)cc(Cl)nc2c1C1CC1 [Compound 51, 2-[(2S)-2-aminopropyl]-5-chloro-3-cyclopropyl-N-[(furan-2-yl)methyl]thieno[3,2-b]pyridin-7-amine] | ***** (≤0.005 μM is indicated by five stars (*****)) | ***** (>4.9 is indicated by five stars (*****)) |
